Columns and labels:
hind paw edema = experiment: Anti-inflammatory activity: hind paw edema in adjuvant (Mycobacterium butyricum) arthritis rats; assay type: in vivo, rat (female Lewis); settings: 1 mg/kg per day, dosed once daily for 4 days, paw volumes measured on fifth day
Method: The effectiveness of the micronized sample as an anti-inflammatory agent and its comparison to the pulverized form was evaluated.
This study is a modification of the method described by Wong, et al in the Journal of Pharmacology and Experimental Therapeutics, Vol. 185: No. 1, pages 127-138 (1973).
The left and right rear paws of female Lewis rats (Charles River Laboratories) weighing 160-180 grams each were measured by mercury displacement prior to injection (Day Zero).
Adjuvant arthritis was induced in this rat colony by subcutaneous injection of Mycobacterium butyricum (0.75 mg in 0.1 ml light mineral oil, Fisher) using an automated Cornwall syringe. On days 11-15 post-adjuvant, the injected animals with 0.25 to 0.76 ml paw edema were selected and distributed evenly, according to edema size, into control and experimental groups of ten rats each. Vehicle control and drug treatments were assigned to the groups at random. […] All animals were dosed once daily for 4 days and on the fifth day both hind paw volumes were again measured using mercury displacement.
The hind paw edema was determined for each rat by subtracting the hind paw volume measured on Day Zero from the hind paw volume measured on the fifth day of the study. Group means were determined and the drug effect was calculated as percent inhibition of the hind paw edema according to the following equation: […]

acetylcholine writhing = experiment: mouse acetylcholine writhing test (analgesic activity); assay type: in vivo, mouse (CD-1); settings: 1 mg/kg oral, 4 hours before intraperitoneal acetylcholine; writhes counted for 10 minutes
Method: This study was performed to evaluate and compare the analgesic effectiveness of the micronized and pulverized samples described in Example 1, Step A and Example 1, Step B. Analgesic activity was evaluated via the mouse acetylcholine writhing test using a modification of the procedure described by Collier et al in Nature (New Biol.), Volume 204: page 1316 (1964) and the British Journal of Pharmacology, Chemotherapy, Volume 32: page 295 (1968).
The test groups consisted of ten mile CD-1 mice (Charles River Laboratories) weighing 18-28 grams each. Test compounds suspended in 0.25% methylcellulose solution were administered orally by gavage and four hours later the mice were injected intraperitoneally with acetylcholine (0.55 mg/ml in 0.25% methyl cellulose). The number of writhes in each group of mice were counted for 10 minutes immediately following the injection of acetylcholine and percent inhibition was calculated as follows: […]

adjuvant polyarthritis = experiment: Adjuvant polyarthritis in polyarthritic injected rats (hind feet weight); assay type: in vivo, rat (male Lewis); settings: for ED50: oral once daily for 5 days (Days 9-13), hind feet weighed Day 15, 21600 min
Method: The object of this study was to compare the anti-inflammatory activity of the micronized and unmicronized samples when administered orally to polyarthritic injected rats.
This anti-inflammatory study was conducted according to the method described by Chang, Y., Pearson, C.M. and Abe, C. in Arthritis and Rheumatism, Volume 23: pp. 62-71 (1980).
Male Lewis rats weighing 200 to 220 grams were divided into groups of 5 and housed in hanging cages with food and water ad libitum. On Day Zero they were injected with 7.5 mg of N,N-dioctadecyl-N',N'bis(2-hydroxyethyl)propane diamine suspended in mineral oil subcutaneously at the base of the tail. On Day 9 the animals were weighed and compound administration was begun. The micronized and unmicronized samples described in Example 1, Steps A and B, were suspended in solution using a tissue homogenizer in 1% carboxy methyl cellulose. These compounds were administered orally once daily for 5 days (Days 9-13) with no dosing on day 14. On Day 15, the hind feet were removed just above the ankle joint and weighed, and percent difference from the diseased control was calculated.

Compound	% Inhibition (hind paw edema) (hind paw edema; listed as Example 1, Step B micronized) [%]	% Inhibition (acetylcholine writhing assay) (acetylcholine writhing) [%]	ED50 (adjuvant polyarthritis) [mg/kg]	increase in potency of micronized compared to unmicronized sample (adjuvant polyarthritis; ratio of ED50, adjuvant polyarthritis)	% Inhibition (hind paw edema) (hind paw edema) [%]	degree of increase in anti-inflammatory effectiveness attributable to micronization vs unmicronized product (adjuvant polyarthritis; general statement, test not named)
CN1OCCC(=Cc2cc(C(C)(C)C)c(O)c(C(C)(C)C)c2)C1=O [Example 1, Step A, dihydro-4-(3,5-di-tert-butyl-4-hydroxy-benzylidene)-2-methyl-2H-1,2-oxazin-3(4H)-one]	35	100	2.8	almost six fold increase in potency	–	–
CN1OCCC(=Cc2cc(C(C)(C)C)c(O)c(C(C)(C)C)c2)C1=O [Example 1, Step B, dihydro-4-(3,5-di-tert-butyl-4-hydroxy-benzylidene)-2-methyl-2H-1,2-oxazin-3(4H)-one]	–	63	16.2	–	20	–
CN1OCCC(=Cc2cc(C(C)(C)C)c(O)c(C(C)(C)C)c2)C1=O [active ingredient, dihydro-4-(3,5-di-tert-butyl-4-hydroxybenzylidene)-2-methyl-2H-1,2-oxazin-3(4H)-one]	–	–	–	–	–	at least six fold
